Counter-ions that a name gives are not always drawn.
biological target: T1, human recombinant P2X7 receptors (Homo sapiens, UniProt Q99572); assay: Ethidium Accumulation Assay 1; format: cell-based; details: HEK293 cells stably expressing human recombinant P2X7; 1 mM ATP; ethidium 100 μM; read-out: Assay 1 (antagonist pIC50 for blocking ATP responses, ethidium accumulation) (converted)
T1 construct: expressed in transfected cells
T1 sequence (Q99572 1-595): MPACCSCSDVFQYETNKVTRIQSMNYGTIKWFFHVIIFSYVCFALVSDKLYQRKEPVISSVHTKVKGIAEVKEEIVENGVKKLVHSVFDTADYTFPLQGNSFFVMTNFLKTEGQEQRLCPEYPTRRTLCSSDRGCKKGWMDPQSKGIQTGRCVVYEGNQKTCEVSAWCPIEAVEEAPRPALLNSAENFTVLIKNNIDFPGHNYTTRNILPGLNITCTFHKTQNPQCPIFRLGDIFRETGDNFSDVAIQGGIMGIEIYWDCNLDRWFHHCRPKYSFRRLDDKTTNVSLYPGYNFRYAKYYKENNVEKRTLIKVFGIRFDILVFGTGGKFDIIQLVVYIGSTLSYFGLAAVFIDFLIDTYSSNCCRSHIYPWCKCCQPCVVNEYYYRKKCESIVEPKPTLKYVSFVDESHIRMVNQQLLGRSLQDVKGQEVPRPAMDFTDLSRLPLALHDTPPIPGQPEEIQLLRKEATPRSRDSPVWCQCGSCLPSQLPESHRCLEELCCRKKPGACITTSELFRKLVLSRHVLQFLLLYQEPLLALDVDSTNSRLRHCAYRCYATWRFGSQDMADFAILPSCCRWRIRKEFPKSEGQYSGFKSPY
Experimental: Studies were performed using NaCl assay buffer of the following composition: 140 mM NaCl, 10 mM HEPES [4-(2-hydroxyethyl)-1-piperazine-1-ethanesulfonic acid], 5 mM N-methyl-D-glucamine, 5.6 mM KCl, 10 mM D-glucose, 0.5 mM CaCl2 (pH 7.4).
Human Embryonic Kidney (HEK) 293 cells, stably expressing human recombinant P2X7 receptors, were grown in poly-D-lysine pretreated 96 well plates for 18-24 hours. […] The cells were washed twice with 350 μl of the assay buffer, before addition of 50 μl of the assay buffer containing the putative P2X7 receptor antagonist compound. (A small amount of dimethyl sulfoxide, for initially dissolving the compound, is optionally used and present in this […] test compound sample.) The cells were then incubated at room temperature (19-21° C.) for 30 min before addition of ATP and ethidium (100 μM final assay concentration). The ATP concentration was chosen to be close to the EC80 for the receptor type and was 1 mM for studies on the human P2X7 receptor. Incubations were continued for 8 or 16 min and were terminated by addition of 25 μl of 1.3M sucrose containing 4 mM of the P2X7 receptor antagonist Reactive Black 5 (Aldrich). […] Antagonist pIC50 values for blocking ATP responses were determined using iterative curve fitting techniques.

`O=C(c1ccc(Cl)cc1Cl)N1CCn2cc(C(F)(F)F)nc2C1` [Example 3, 7-[(2,4-Dichlorophenyl)carbonyl]-2-(trifluoromethyl)-5,6,7,8-tetrahydroimidazo[1,2-a]pyrazine] and `CCc1cn2c(n1)CN(C(=O)c1ccc(Cl)cc1Cl)CC2` [Example 7, 7-[(2,4-dichlorophenyl)carbonyl]-2-ethyl-5,6,7,8-tetrahydroimidazo[1,2-a]pyrazine] cannot be ordered by IC50: < 1000 nM for the first, < 1000 nM for the second.

`O=C(c1cccc(C(F)(F)F)c1Cl)N1CCn2c(-c3ccccc3)cnc2C1` [Example 4, 7-{[2-chloro-3-(trifluoromethyl)phenyl]carbonyl}-3-phenyl-5,6,7,8-tetrahydroimidazo[1,2-a]pyrazine hydrochloride] and `Cc1ccccc1-c1cnc2n1CCN(C(=O)c1cccc(C(F)(F)F)c1Cl)C2` [Example 28, 7-{[2-Chloro-3-(trifluoromethyl)phenyl]carbonyl}-3-(2-methylphenyl)-5,6,7,8-tetrahydroimidazo[1,2-a]pyrazine hydrochloride] cannot be ordered by IC50: < 10 nM for the first, < 100 nM for the second.

`O=C(c1ccc(Cl)cc1Cl)N1CCn2c(-c3ccccc3)cnc2C1` [Example 5, 7-[(2,4-dichlorophenyl)carbonyl]-3-phenyl-5,6,7,8-tetrahydroimidazo[1,2-a]pyrazine hydrochloride] and `O=C(c1ccc(F)cc1Cl)N1CCn2c(-c3ccccc3)cnc2C1` [Example 10, 7-[(2-chloro-4-fluorophenyl)carbonyl]-3-phenyl-5,6,7,8-tetrahydroimidazo[1,2-a]pyrazine hydrochloride] cannot be ordered by IC50: < 100 nM for the first, < 100 nM for the second.

`CCc1cn2c(n1)CN(C(=O)c1cccc(C(F)(F)F)c1Cl)CC2` [Example 6, 7-{[2-chloro-3-(trifluoromethyl)phenyl]carbonyl}-2-ethyl-5,6,7,8-tetrahydroimidazo[1,2-a]pyrazine] and `Cc1cn2c(n1)CN(C(=O)c1cccc(C(F)(F)F)c1Cl)CC2` [Example 11, 7-{[2-chloro-3-(trifluoromethyl)phenyl]carbonyl}-2-methyl-5,6,7,8-tetrahydroimidazo[1,2-a]pyrazine] cannot be ordered by IC50: < 100 nM for the first, < 501 nM for the second.

`O=C(c1ccccc1Cl)N1CCn2c(-c3ccccc3)cnc2C1` [Example 8, 7-[(2-chlorophenyl)carbonyl]-3-phenyl-5,6,7,8-tetrahydroimidazo[1,2-a]pyrazine hydrochloride] and `O=C(c1cccc(Cl)c1Cl)N1CCn2c(-c3ccccc3)cnc2C1` [Example 9, 7-[(2,3-Dichlorophenyl)carbonyl]-3-phenyl-5,6,7,8-tetrahydroimidazo[1,2-a]pyrazine hydrochloride] cannot be ordered by IC50: < 100 nM for the first, < 10 nM for the second.

`Cc1cn2c(n1)CN(C(=O)c1cccc(Cl)c1Cl)CC2` [Example 12, 7-[(2,3-dichlorophenyl)carbonyl]-2-methyl-5,6,7,8-tetrahydroimidazo[1,2-a]pyrazine] and `O=C(c1cccc(Cl)c1Cl)N1CCn2cc(-c3ccccc3)nc2C1` [Example 15, 7-[(2,3-dichlorophenyl)carbonyl]-2-phenyl-5,6,7,8-tetrahydroimidazo[1,2-a]pyrazine hydrochloride] cannot be ordered by IC50: < 501 nM for the first, < 1000 nM for the second.

`CC(C)(C)c1cn2c(n1)CN(C(=O)c1cccc(C(F)(F)F)c1Cl)CC2` [Example 13, 7-{[2-chloro-3-(trifluoromethyl)phenyl]carbonyl}-2-(1,1-dimethylethyl)-5,6,7,8-tetrahydroimidazo[1,2-a]pyrazine hydrochloride] and `O=C(c1cccc(C(F)(F)F)c1Cl)N1CCn2c(Br)cnc2C1` [Example 18, 3-Bromo-7-{[2-chloro-3-(trifluoromethyl)phenyl]carbonyl}-5,6,7,8-tetrahydroimidazo[1,2-a]pyrazine hydrochloride] cannot be ordered by IC50: < 1000 nM for the first, < 10 nM for the second.

`O=C(c1cccc(C(F)(F)F)c1Cl)N1CCn2cc(-c3ccccc3)nc2C1` [Example 14, 7-{[2-chloro-3-(trifluoromethyl)phenyl]carbonyl}-2-phenyl-5,6,7,8-tetrahydroimidazo[1,2-a]pyrazine hydrochloride] and `O=C(c1cccc(C(F)(F)F)c1Cl)N1CCn2c(nc(C(F)(F)F)c2-c2ccccc2)C1` [Example 26, 7-{[2-Chloro-3-(trifluoromethyl)phenyl]carbonyl}-3-phenyl-2-(trifluoromethyl)-5,6,7,8-tetrahydroimidazo[1,2-a]pyrazine] cannot be ordered by IC50: < 501 nM for the first, < 100 nM for the second.

`O=C(c1cccc(C(F)(F)F)c1Cl)N1CCn2c(-c3ccccn3)cnc2C1` [Example 16, a hydrochloride (n•HCl) salt of 7-{[2-chloro-3-(trifluoromethyl)phenyl]carbonyl}-3-(2-pyridinyl)-5,6,7,8-tetrahydroimidazo[1,2-a]pyrazine] and `O=C(c1cccc(C(F)(F)F)c1Cl)N1CCn2c(-c3ccc(F)cn3)cnc2C1` [Example 31, 7-{[2-Chloro-3-(trifluoromethyl)phenyl]carbonyl}-3-(5-fluoro-2-pyridinyl)-5,6,7,8-tetrahydroimidazo[1,2-a]pyrazine] cannot be ordered by IC50: < 10 nM for the first, < 10 nM for the second.

`O=C(c1c(Cl)cc(Cl)cc1Cl)N1CCn2c(-c3ccccc3)cnc2C1` [Example 17, 3-Phenyl-7-[(2,4,6-trichlorophenyl)carbonyl]-5,6,7,8-tetrahydroimidazo[1,2-a]pyrazine hydrochloride] and `O=C(c1cccc(C(F)(F)F)c1Cl)N1CCn2c(-c3ccc(Cl)cc3)cnc2C1` [Example 25, 3-(4-chlorophenyl)-7-{[2-chloro-3-(trifluoromethyl)phenyl]carbonyl}-5,6,7,8-tetrahydroimidazo[1,2-a]pyrazine hydrochloride] cannot be ordered by IC50: < 100 nM for the first, < 501 nM for the second.

`O=C(c1cccc(C(F)(F)F)c1Cl)N1CCn2c(nc(C(F)(F)F)c2Br)C1` [Example 19, 3-Bromo-7-{[2-chloro-3-(trifluoromethyl)phenyl]carbonyl}-2-(trifluoromethyl)-5,6,7,8-tetrahydroimidazo[1,2-a]pyrazine] and `O=C(c1cccc(C(F)(F)F)c1Cl)N1CCn2c(nc(Cl)c2Br)C1` [Example 33, 3-Bromo-2-chloro-7-{[2-chloro-3-(trifluoromethyl)phenyl]carbonyl}-5,6,7,8-tetrahydroimidazo[1,2-a]pyrazine] cannot be ordered by IC50: < 10 nM for the first, < 10 nM for the second.

`O=C(c1cccc(C(F)(F)F)c1Cl)N1CCn2c(nc(I)c2I)C1` [Example 20, 7-{[2-chloro-3-(trifluoromethyl)phenyl]carbonyl}-2,3-diiodo-5,6,7,8-tetrahydroimidazo[1,2-a]pyrazine] and `O=C(c1cccc(C(F)(F)F)c1Cl)N1CCn2c(I)cnc2C1` [Example 21, 7-{[2-chloro-3-(trifluoromethyl)phenyl]carbonyl}-3-iodo-5,6,7,8-tetrahydroimidazo[1,2-a]pyrazine] cannot be ordered by IC50: < 10 nM for the first, < 10 nM for the second.

`O=C(c1cccc(C(F)(F)F)c1Cl)N1CCn2c(-c3ccc(F)cc3)cnc2C1` [Example 22, 7-{[2-Chloro-3-(trifluoromethyl)phenyl]carbonyl}-3-(4-fluorophenyl)-5,6,7,8-tetrahydroimidazo[1,2-a]pyrazine hydrochloride] and `O=C(c1cccc(C(F)(F)F)c1Cl)N1CCn2c(-c3cccnc3)cnc2C1` [Example 23, a hydrochloride salt (n•HCl) of 7-{[2-chloro-3-(trifluoromethyl)phenyl]carbonyl}-3-(3-pyridinyl)-5,6,7,8-tetrahydroimidazo[1,2-a]pyrazine] cannot be ordered by IC50: < 100 nM for the first, < 10 nM for the second.

`O=C(c1cccc(C(F)(F)F)c1Cl)N1CCn2c(-c3cccc(C(F)(F)F)c3Cl)cnc2C1` [Example 24, 3-[2-chloro-3-(trifluoromethyl)phenyl]-7-{[2-chloro-3-(trifluoromethyl)phenyl]carbonyl}-5,6,7,8-tetrahydroimidazo[1,2-a]pyrazine hydrochloride] and `O=C(c1ccc(F)cc1Cl)N1CCn2c(nc(C(F)(F)F)c2Br)C1` [Example 32, 3-Bromo-7-[(2-chloro-4-fluorophenyl)carbonyl]-2-(trifluoromethyl)-5,6,7,8-tetrahydroimidazo[1,2-a]pyrazine] cannot be ordered by IC50: < 1000 nM for the first, < 100 nM for the second.

`O=C(c1ccc(Cl)cc1Cl)N1CCn2c(nc(Cl)c2Cl)C1` [Example 29, 2,3-dichloro-7-[(2,4-dichlorophenyl)carbonyl]-5,6,7,8-tetrahydroimidazo[1,2-a]pyrazine] and `O=C(c1ccc(F)cc1Cl)N1CCn2c(Br)cnc2C1` [Example 30, 3-Bromo-7-[(2-chloro-4-fluorophenyl)carbonyl]-5,6,7,8-tetrahydroimidazo[1,2-a]pyrazine] cannot be ordered by IC50: < 100 nM for the first, < 501 nM for the second.

— patent US8513248B2, “5,6,7,8-tetrahydroimidazo[1,2-A]pyrazine derivatives as P2X7 modulators” (Glaxo Group Limited, priority 2009, dated 2013)
